Test system: chickweed
Assay: Test Example 4: herbicidal effect by soil treatment (Table 19, symbol P)
Format: in vivo, common chickweed (Stellaria media)
Settings: amount of applied herbicide 320 g/ha
How it was run: (§1)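 Three weeks of greenhouse growth at 25° C. to 30° C. followed a uniform surface spray of water-diluted emulsion at a predetermined herbicide amount. Seeds had been sown beforehand under about 1.5 cm of sterilized diluvial soil. Grading followed criteria set out in an earlier test.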

Compound | herbicidal effect on P: chickweed
CCCC(=O)Oc1c(C)nn(C)c(=O)c1-c1c(-c2ccc(C(F)F)cc2)sc2ccc(F)cc12 [2-228] | 4 (Herbicidal rate of 70% or more and less than 90%)
CCSc1ccc(-c2sc3ccc(F)cc3c2-c2c(O)c(C)nn(C)c2=O)cc1 [2-244] | 1 (Herbicidal rate of 5% or more and less than 20%)

Test system: redroot pigweed
Assay: Test Example 5: herbicidal effect by foliage application, plastic box (Table 20, symbol N)
Format: in vivo, redroot pigweed (Amaranthus retroflexus)
Settings: foliage application, 320 g/ha, evaluated three weeks after application
How it was run: (§2)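 Plants sown in sterilized diluvial soil and grown 14 days in a greenhouse at 25° C to 30° C, then sprayed on the foliage with the compound's emulsion diluted in water to a predetermined herbicide amount. Injury to weeds and crops scored three weeks after application on a visual rating scale.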

Compound | herbicidal effect on N: redroot pigweed (criteria 0-5)
CCCC(=O)Oc1c(C)nn(C)c(=O)c1-c1c(-c2ccc(C(F)F)cc2)sc2ccc(F)cc12 [2-228] | 5 (Herbicidal rate of 90% or more (almost completely withered))
CCSc1ccc(-c2sc3ccc(F)cc3c2-c2c(O)c(C)nn(C)c2=O)cc1 [2-244] | 5 (Herbicidal rate of 90% or more (almost completely withered))

Test system: blackgrass
Assay: Test Example 4: herbicidal effect by soil treatment (Table 19, symbol J)
Format: in vivo, blackgrass (Alopecurus myosuroides)
Settings: amount of applied herbicide 320 g/ha
How it was run: as §1

Compound | herbicidal effect on J: blackgrass
CCCC(=O)Oc1c(C)nn(C)c(=O)c1-c1c(-c2ccc(C(F)F)cc2)sc2ccc(F)cc12 [2-228] | 0 (Herbicidal rate of 5% or less (almost no effect))
CCSc1ccc(-c2sc3ccc(F)cc3c2-c2c(O)c(C)nn(C)c2=O)cc1 [2-244] | 5 (Herbicidal rate of 90% or more (almost completely withered))

Test system: green foxtail
Assay: Test Example 4: herbicidal effect by soil treatment (Table 19, symbol G)
Format: in vivo, green foxtail (Setaria viridis)
Settings: amount of applied herbicide 320 g/ha
How it was run: as §1

Compound | herbicidal effect on G: green foxtail
CCCC(=O)Oc1c(C)nn(C)c(=O)c1-c1c(-c2ccc(C(F)F)cc2)sc2ccc(F)cc12 [2-228] | 4 (Herbicidal rate of 70% or more and less than 90%)
CCSc1ccc(-c2sc3ccc(F)cc3c2-c2c(O)c(C)nn(C)c2=O)cc1 [2-244] | 5 (Herbicidal rate of 90% or more (almost completely withered))

Test system: barnyard grass
Assay: Test Example 4: herbicidal effect by soil treatment (Table 19, symbol H)
Format: in vivo, barnyard grass (Echinochloa crus-galli)
Settings: amount of applied herbicide 320 g/ha
How it was run: as §1

Compound | herbicidal effect on H: barnyard grass
CCCC(=O)Oc1c(C)nn(C)c(=O)c1-c1c(-c2ccc(C(F)F)cc2)sc2ccc(F)cc12 [2-228] | 5 (Herbicidal rate of 90% or more (almost completely withered))
CCSc1ccc(-c2sc3ccc(F)cc3c2-c2c(O)c(C)nn(C)c2=O)cc1 [2-244] | 4 (Herbicidal rate of 70% or more and less than 90%)

Test system: velvetleaf
Assay: Test Example 4: herbicidal effect by soil treatment (Table 19, symbol M)
Format: in vivo, velvetleaf (Abutilon theophrasti)
Settings: amount of applied herbicide 320 g/ha
How it was run: as §1

Compound | herbicidal effect on M: velvetleaf
CCCC(=O)Oc1c(C)nn(C)c(=O)c1-c1c(-c2ccc(C(F)F)cc2)sc2ccc(F)cc12 [2-228] | 3 (Herbicidal rate of 40% or more and less than 70%)
CCSc1ccc(-c2sc3ccc(F)cc3c2-c2c(O)c(C)nn(C)c2=O)cc1 [2-244] | 2 (Herbicidal rate of 20% or more and less than 40%)

Test system: velvetleaf
Assay: Test Example 5: herbicidal effect by foliage application, plastic box (Table 20, symbol M)
Format: in vivo, velvetleaf (Abutilon theophrasti)
Settings: foliage application, 320 g/ha, evaluated three weeks after application
How it was run: as §2

Compound | herbicidal effect on M: velvetleaf (criteria 0-5)
CCCC(=O)Oc1c(C)nn(C)c(=O)c1-c1c(-c2ccc(C(F)F)cc2)sc2ccc(F)cc12 [2-228] | 5 (Herbicidal rate of 90% or more (almost completely withered))
CCSc1ccc(-c2sc3ccc(F)cc3c2-c2c(O)c(C)nn(C)c2=O)cc1 [2-244] | 5 (Herbicidal rate of 90% or more (almost completely withered))

Test system: windgrass
Assay: Test Example 5: herbicidal effect by foliage application, plastic box (Table 20, symbol L)
Format: in vivo, windgrass (Apera spica-venti)
Settings: foliage application, 320 g/ha, evaluated three weeks after application
How it was run: as §2

Compound | herbicidal effect on L: windgrass (criteria 0-5)
CCCC(=O)Oc1c(C)nn(C)c(=O)c1-c1c(-c2ccc(C(F)F)cc2)sc2ccc(F)cc12 [2-228] | 0 (Herbicidal rate of 5% or less (almost no effect))
CCSc1ccc(-c2sc3ccc(F)cc3c2-c2c(O)c(C)nn(C)c2=O)cc1 [2-244] | 5 (Herbicidal rate of 90% or more (almost completely withered))

Test system: persian speedwell
Assay: Test Example 4: herbicidal effect by soil treatment (Table 19, symbol R)
Format: in vivo, Persian speedwell (Veronica persica)
Settings: amount of applied herbicide 320 g/ha
How it was run: as §1

Compound | herbicidal effect on R: persian speedwell
CCCC(=O)Oc1c(C)nn(C)c(=O)c1-c1c(-c2ccc(C(F)F)cc2)sc2ccc(F)cc12 [2-228] | 5 (Herbicidal rate of 90% or more (almost completely withered))
CCSc1ccc(-c2sc3ccc(F)cc3c2-c2c(O)c(C)nn(C)c2=O)cc1 [2-244] | 5 (Herbicidal rate of 90% or more (almost completely withered))

Test system: chickweed
Assay: Test Example 5: herbicidal effect by foliage application, plastic box (Table 20, symbol P)
Format: in vivo, common chickweed (Stellaria media)
Settings: foliage application, 320 g/ha, evaluated three weeks after application
How it was run: as §2

Compound | herbicidal effect on P: chickweed (criteria 0-5)
CCCC(=O)Oc1c(C)nn(C)c(=O)c1-c1c(-c2ccc(C(F)F)cc2)sc2ccc(F)cc12 [2-228] | 5 (Herbicidal rate of 90% or more (almost completely withered))
CCSc1ccc(-c2sc3ccc(F)cc3c2-c2c(O)c(C)nn(C)c2=O)cc1 [2-244] | 5 (Herbicidal rate of 90% or more (almost completely withered))

Test system: lambsquarters
Assay: Test Example 4: herbicidal effect by soil treatment (Table 19, symbol O)
Format: in vivo, lambsquarters (Chenopodium album)
Settings: amount of applied herbicide 320 g/ha
How it was run: as §1

Compound | herbicidal effect on O: lambsquarters
CCCC(=O)Oc1c(C)nn(C)c(=O)c1-c1c(-c2ccc(C(F)F)cc2)sc2ccc(F)cc12 [2-228] | 4 (Herbicidal rate of 70% or more and less than 90%)
CCSc1ccc(-c2sc3ccc(F)cc3c2-c2c(O)c(C)nn(C)c2=O)cc1 [2-244] | 4 (Herbicidal rate of 70% or more and less than 90%)

Test system: wild oat
Assay: Test Example 4: herbicidal effect by soil treatment (Table 19, symbol I)
Format: in vivo, wild oat (Avena fatua)
Settings: amount of applied herbicide 320 g/ha
How it was run: as §1

Compound | herbicidal effect on I: wild oat
CCCC(=O)Oc1c(C)nn(C)c(=O)c1-c1c(-c2ccc(C(F)F)cc2)sc2ccc(F)cc12 [2-228] | 0 (Herbicidal rate of 5% or less (almost no effect))
CCSc1ccc(-c2sc3ccc(F)cc3c2-c2c(O)c(C)nn(C)c2=O)cc1 [2-244] | 0 (Herbicidal rate of 5% or less (almost no effect))

Test system: lambsquarters
Assay: Test Example 5: herbicidal effect by foliage application, plastic box (Table 20, symbol O)
Format: in vivo, lambsquarters (Chenopodium album)
Settings: foliage application, 320 g/ha, evaluated three weeks after application
How it was run: as §2

Compound | herbicidal effect on O: lambsquarters (criteria 0-5)
CCCC(=O)Oc1c(C)nn(C)c(=O)c1-c1c(-c2ccc(C(F)F)cc2)sc2ccc(F)cc12 [2-228] | 5 (Herbicidal rate of 90% or more (almost completely withered))
CCSc1ccc(-c2sc3ccc(F)cc3c2-c2c(O)c(C)nn(C)c2=O)cc1 [2-244] | 5 (Herbicidal rate of 90% or more (almost completely withered))

Test system: southern crabgrass
Assay: Test Example 4: herbicidal effect by soil treatment (Table 19, symbol F)
Format: in vivo, southern crabgrass (Digitaria ciliaris)
Settings: amount of applied herbicide 320 g/ha
How it was run: as §1

Compound | herbicidal effect on F: southern crabgrass
CCCC(=O)Oc1c(C)nn(C)c(=O)c1-c1c(-c2ccc(C(F)F)cc2)sc2ccc(F)cc12 [2-228] | 2 (Herbicidal rate of 20% or more and less than 40%)
CCSc1ccc(-c2sc3ccc(F)cc3c2-c2c(O)c(C)nn(C)c2=O)cc1 [2-244] | 5 (Herbicidal rate of 90% or more (almost completely withered))

Test system: Italian ryegrass
Assay: Test Example 5: herbicidal effect by foliage application, plastic box (Table 20, symbol K)
Format: in vivo, Italian ryegrass (Lolium multiflorum)
Settings: foliage application, 320 g/ha, evaluated three weeks after application
How it was run: as §2

Compound | herbicidal effect on K: Italian ryegrass (criteria 0-5)
CCCC(=O)Oc1c(C)nn(C)c(=O)c1-c1c(-c2ccc(C(F)F)cc2)sc2ccc(F)cc12 [2-228] | 3 (Herbicidal rate of 40% or more and less than 70%)
CCSc1ccc(-c2sc3ccc(F)cc3c2-c2c(O)c(C)nn(C)c2=O)cc1 [2-244] | 5 (Herbicidal rate of 90% or more (almost completely withered))

Test system: oval-leafed pondweed
Assay: Test Example 1: herbicidal activity, application before weed generation under submerged conditions (Table 16, symbol C)
Format: in vivo, oval-leafed pondweed (Monochoria vaginalis)
Settings: 320 g/ha applied herbicide
How it was run: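 Alluvial soil was flooded to 4 cm depth, weed seeds were sown mixed and 2.5-leaf rice seedlings were transplanted. On sowing day, the compound's emulsion, diluted in water to a set dose, was applied to the water surface. Plants grew at 25–30 °C and were scored 0–5 after three weeks.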

Compound | Herbicidal effect on C: oval-leafed pondweed (grade 0-5)
CCCC(=O)Oc1c(C)nn(C)c(=O)c1-c1c(-c2ccc(C(F)F)cc2)sc2ccc(F)cc12 [2-228] | 4 (Herbicidal rate of 70% or more and less than 90%)
CCSc1ccc(-c2sc3ccc(F)cc3c2-c2c(O)c(C)nn(C)c2=O)cc1 [2-244] | 0 (Herbicidal rate of 5% or less (almost no effect))

Test system: Japanese bulrush
Assay: Test Example 2: herbicidal activity, application during weed generation under submerged conditions (Table 17, symbol B)
Format: in vivo, Japanese bulrush (Schoenoplectus juncoides)
Settings: AAH 320 g/ha; application during weed generation, submerged conditions
How it was run: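 Steps: fill Wagner pots with alluvial soil; add water to give 4 cm depth; sow the species mixed; grow under glass at 25–30° C.; at 1–2 leaves apply water-diluted emulsion formulation to the water surface at a fixed herbicide amount; score after 3 weeks.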

Compound | herbicidal effect rating, B: Japanese bulrush
CCCC(=O)Oc1c(C)nn(C)c(=O)c1-c1c(-c2ccc(C(F)F)cc2)sc2ccc(F)cc12 [2-228] | 3 (Herbicidal rate of 40% or more and less than 70%)
CCSc1ccc(-c2sc3ccc(F)cc3c2-c2c(O)c(C)nn(C)c2=O)cc1 [2-244] | 3 (Herbicidal rate of 40% or more and less than 70%)
